Assay results as given in patent US20220281848A1, “PYRAZOLE-SUBSTITUTED PYRROLIDINONES AS HERBICIDES” (FMC Corporation, priority 2019, published 2022).

Test system: plants
Test: Test D pre-emergence, other plants of Tables D1 and D3
Format: in vivo
Settings: for damage to plant, ALOMY / damage to plant, AVEFA / damage to plant, BEAVA / damage to plant, BROTE / damage to plant, BRSNN / damage to plant, CHEAL / damage to plant, GALAP / damage to plant, HORVW / damage to plant, KCHSC / damage to plant, LOLPE / damage to plant, POAAN / damage to plant, POLCO / damage to plant, SINAR / damage to plant, STEME / damage to plant, VERPE: pre-emergence, 100=total damage, 0=no damage
Procedure: A formulation containing 50 g/L of the test chemical was prepared by dissolving the active ingredient in a mixture of organic solvents and emulsifier, details of which are provided in the table. This formulation was then mixed with a small, variable amount of acetone to aid dissolution, before addition of a 0.2% v/v aqueous solution of an adjuvant, as the aqueous diluent, to form an aqueous spray solution which contains a predetermined concentration of the active ingredient.
This aqueous spray solution was then sprayed onto plants including maize and wheat that had been seed treated with a herbicide safener, after one day's cultivation (for pre-emergence) or after about 12 days' cultivation (for post-emergence). The plants were grown from seeds sown in standard soil, placed in a glasshouse under controlled conditions (at 24/18° C. or 20/16° C., day/night; 16 h light; 65% humidity). After spray application the plants were then grown in a glasshouse under the same conditions and watered twice daily. After 15 d for post-emergence and 20 DAA for pre-emergence the test was evaluated (100=total damage to plant; 0=no damage to plant).

## CN1CC(c2cc(C(F)(F)F)n(C)n2)C(C(=O)Nc2ccccc2F)C1=O (racemic) [Compound 9]
SORVU, preemergent, rate 500, 20 DAA
  damage to plant (100=total damage to plant; 0=no damage to plant), SORVU: 0
Rate 15, 20 DAA
  damage to plant, ALOMY: 0
  damage to plant, AVEFA: 0
  damage to plant, BEAVA: 0
  damage to plant, BROTE: 0
  damage to plant, BRSNN: 0
  damage to plant, CHEAL: 0
  damage to plant, GALAP: 0
  damage to plant, HORVW: 0
  damage to plant, KCHSC: 0
  damage to plant, LOLPE: 0
  damage to plant, POAAN: 0
  damage to plant, POLCO: 0
  damage to plant, SINAR: 0
  damage to plant, STEME: 0
  damage to plant, VERPE: 0
Rate 30, 20 DAA
  damage to plant, ALOMY: 0
  damage to plant, AVEFA: 0
  damage to plant, BEAVA: 0
  damage to plant, BROTE: 0
  damage to plant, BRSNN: 0
  damage to plant, CHEAL: 0
  damage to plant, GALAP: 0
  damage to plant, HORVW: 0
  damage to plant, KCHSC: 0
  damage to plant, LOLPE: 0
  damage to plant, POAAN: 0
  damage to plant, POLCO: 0
  damage to plant, SINAR: 0
  damage to plant, STEME: 0
  damage to plant, VERPE: 0
Rate 60, 20 DAA
  damage to plant, ALOMY: 0
  damage to plant, AVEFA: 0
  damage to plant, BEAVA: 0
  damage to plant, BROTE: 0
  damage to plant, BRSNN: 0
  damage to plant, CHEAL: 0
  damage to plant, GALAP: 0
  damage to plant, HORVW: 0
  damage to plant, KCHSC: 0
  damage to plant, LOLPE: 0
  damage to plant, POAAN: 0
  damage to plant, POLCO: 0
  damage to plant, SINAR: 0
  damage to plant, STEME: 0
  damage to plant, VERPE: 0
Rate 130, 20 DAA
  damage to plant, ALOMY: 0
  damage to plant, AVEFA: 0
  damage to plant, BEAVA: 0
  damage to plant, BROTE: 0
  damage to plant, BRSNN: 0
  damage to plant, CHEAL: 0
  damage to plant, GALAP: 0
  damage to plant, HORVW: 0
  damage to plant, KCHSC: 0
  damage to plant, LOLPE: 0
  damage to plant, POAAN: 10
  damage to plant, POLCO: 0
  damage to plant, SINAR: 0
  damage to plant, STEME: 0
  damage to plant, VERPE: 0
Rate 250, 20 DAA
  damage to plant, ALOMY: 0
  damage to plant, AVEFA: 10
  damage to plant, BEAVA: 0
  damage to plant, BROTE: 0
  damage to plant, BRSNN: 0
  damage to plant, CHEAL: 0
  damage to plant, GALAP: 0
  damage to plant, HORVW: 0
  damage to plant, KCHSC: 0
  damage to plant, LOLPE: 30
  damage to plant, POAAN: 10
  damage to plant, POLCO: 0
  damage to plant, SINAR: 0
  damage to plant, STEME: 10
  damage to plant, VERPE: 0
Rate 500, 20 DAA
  damage to plant, ALOMY: 0
  damage to plant, AVEFA: 20
  damage to plant, BEAVA: 0
  damage to plant, BROTE: 0
  damage to plant, BRSNN: 0
  damage to plant, CHEAL: 0
  damage to plant, GALAP: 10
  damage to plant, HORVW: 0
  damage to plant, KCHSC: 0
  damage to plant, LOLPE: 20
  damage to plant, POAAN: 50
  damage to plant, POLCO: 0
  damage to plant, SINAR: 0
  damage to plant, STEME: 80
  damage to plant, VERPE: 0
